Source: patent US11643421B2, “Process for the preparation of tricyclic PI3K inhibitor compounds and methods for using the same for the treatment of cancer” (priority 2015, dated 2023)
Read-outs that look alike come from different tables or passages of the source.

Assays:
[1] = In vivo pharmacokinetics IV and PO; parameters: species or system Male Sprague-Dawley rats; conditions: Rat
Description: (§1) The hepatocyte stability of compound IIIat was evaluated across preclinical species. Certain in vivo pharmacokinetic parameters were also evaluated. […] Male Sprague-Dawley rats, female CD-1 mice, male cynomolgus monkeys and beagle dogs were dosed intravenously with 1 mg/kg of compound IIIat prepared in 60% PEG400/10% Ethanol. Compound IIIat was administered orally (PO) at the indicated dose in 0.5% methylcellulose with 0.2% Tween 80 (MCT).

[2] = In vivo pharmacokinetics IV and PO; parameters: species or system male cynomolgus monkeys; conditions: Cyno
Description: as §1

[3] = In vivo pharmacokinetics IV and PO; parameters: species or system beagle dogs; conditions: Dog
Description: as §1

[4] = Plasma protein binding (PPB %); type: in vitro ADME, cynomolgus monkeys; conditions: cynomolgus monkey
Description: as §1

[5] = Plasma protein binding (PPB %); type: in vitro ADME; conditions: dog
Description: as §1

[6] = Phase I study, brain tumor and brain tissue concentration; type: in vivo, human; conditions: concentration from brain tumor tissue, patients
high-grade gliomas = assay: Phase I study, exploratory MRI; type: in vivo, human; conditions: 34 patients, Ktrans, cerebral blood volume, apparent diffusion coefficient
Description: Thirty-four patients were evaluated by exploratory magnetic resonance imaging (“MRI”). […] The Ktrans changes were within the likely noise range of the measurement (based on variability in low-exposure cohorts).

human P-gp (MDR1) = biological target: T1, human P-gp (MDR1) (Homo sapiens, UniProt P08183); assay: Transport assay in MDR1-MDCKI cell monolayers; type: in vitro ADME; conditions: MDCK-MDR1, 2-hour incubation
T1 construct: host or cells: MDR1-MDCKI (canine kidney)
Description: (§2) MDR1-MDCKI cells were licensed from the NCI (National Cancer Institute, Bethesda, Md.) and Bcrp1-MDCKII, BCRP-MDCKII and Mdr1a-LLC-PK1 cells were obtained from the Netherlands Cancer Institute (Amsterdam. The Netherlands). […] The compound was dissolved in transport buffer consisting of Hank's balanced salt solution (HBSS) with 10 mM HEPES (Invitrogen Corporation, Grand Island, N.Y.). Lucifer Yellow (Sigma-Aldrich, St. Louis, Mo.) was used as the paracellular and monolayer integrity marker. […] The efflux ratio (ER) was calculated (Papp, B-A/Papp, A-B).

mouse Bcrp1 = biological target: T2, mouse Bcrp1 (Mus musculus, UniProt Q7TMS5); assay: Transport assay in Bcrp1-MDCKII cell monolayers; type: in vitro ADME; conditions: 2-hour incubation
T2 construct: host or cells: Bcrp1-MDCKII (canine kidney)
Description: as §2

[7] = Plasma protein binding by equilibrium dialysis; type: in vitro ADME; conditions: mouse, plasma (pooled), pH 7.4, n=3, mean±standard deviation, read-out: free fraction (%) in mouse plasma
Description: Plasma samples were equilibrated with phosphate-buffered saline (pH 7.4) at 37° C. in 90% humidity and 5% CO2 for 4 hours. […] Incubations were performed in triplicate. Parameters are presented as mean±standard deviation.

[8] = Brain binding, dialysis of brain homogenate; type: in vitro ADME; conditions: mouse brain homogenate, n=3, read-out: free fraction in brain tissues
Description: Following dialysis, tissues and buffer samples were analyzed as described for the plasma protein binding studies.

pS6 = assay: PI3K pathway modulation in GS2 tumors, western blot; type: in vivo, mice; conditions: 15 mg/kg PO daily 4 weeks
[9] = Solubility in mono- and ternary-solvent systems; type: physicochemical; conditions: 50° C.
Abl = Abl (Homo sapiens, UniProt P00519); assay: biochemical; conditions: read-out: % inhib
CDK5/p25 = CDK5/p25 (Homo sapiens, UniProt Q00535); assay: biochemical; conditions: read-out: % inhib
CHK1 = CHK1 (Homo sapiens, UniProt O14757); assay: biochemical; conditions: read-out: % inhib
CK1_gamma3 = CK1_gamma3 (Homo sapiens, UniProt Q9Y6M4); assay: biochemical; conditions: read-out: % inhib
EphB3 = EphB3 (Homo sapiens, UniProt P54753); assay: biochemical; conditions: read-out: % inhib
MEK1 = MEK1 (Homo sapiens, UniProt Q02750); assay: biochemical; conditions: read-out: % inhib
NEK2 = NEK2 (Homo sapiens, UniProt P51955); assay: biochemical; conditions: read-out: % inhib
PhK_gamma1 = PhK_gamma1 (Homo sapiens, UniProt Q16816); assay: biochemical; conditions: read-out: % inhib
TBK1 = TBK1 (Homo sapiens, UniProt Q9UHD2); assay: biochemical; conditions: read-out: % inhib
ZAP-70 = ZAP-70 (Homo sapiens, UniProt P43403); assay: biochemical; conditions: read-out: % inhib
ZAP-70, sequence (P43403 whole entry, species assumed): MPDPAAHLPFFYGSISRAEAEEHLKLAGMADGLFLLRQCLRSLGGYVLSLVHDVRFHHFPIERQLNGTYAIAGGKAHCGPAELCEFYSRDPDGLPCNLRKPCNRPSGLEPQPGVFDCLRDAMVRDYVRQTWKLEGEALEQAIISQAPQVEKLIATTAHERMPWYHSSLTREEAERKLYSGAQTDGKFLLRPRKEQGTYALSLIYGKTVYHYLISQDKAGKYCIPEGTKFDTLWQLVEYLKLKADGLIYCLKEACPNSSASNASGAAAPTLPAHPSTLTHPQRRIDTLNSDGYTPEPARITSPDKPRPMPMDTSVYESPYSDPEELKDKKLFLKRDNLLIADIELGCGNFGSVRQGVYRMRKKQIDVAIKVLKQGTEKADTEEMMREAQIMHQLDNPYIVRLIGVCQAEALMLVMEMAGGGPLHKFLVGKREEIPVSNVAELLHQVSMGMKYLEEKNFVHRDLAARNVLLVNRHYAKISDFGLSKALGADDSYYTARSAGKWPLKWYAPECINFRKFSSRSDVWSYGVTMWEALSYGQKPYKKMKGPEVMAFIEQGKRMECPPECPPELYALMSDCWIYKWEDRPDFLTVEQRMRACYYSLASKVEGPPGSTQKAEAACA

CHK1, sequence (O14757 whole entry, species assumed): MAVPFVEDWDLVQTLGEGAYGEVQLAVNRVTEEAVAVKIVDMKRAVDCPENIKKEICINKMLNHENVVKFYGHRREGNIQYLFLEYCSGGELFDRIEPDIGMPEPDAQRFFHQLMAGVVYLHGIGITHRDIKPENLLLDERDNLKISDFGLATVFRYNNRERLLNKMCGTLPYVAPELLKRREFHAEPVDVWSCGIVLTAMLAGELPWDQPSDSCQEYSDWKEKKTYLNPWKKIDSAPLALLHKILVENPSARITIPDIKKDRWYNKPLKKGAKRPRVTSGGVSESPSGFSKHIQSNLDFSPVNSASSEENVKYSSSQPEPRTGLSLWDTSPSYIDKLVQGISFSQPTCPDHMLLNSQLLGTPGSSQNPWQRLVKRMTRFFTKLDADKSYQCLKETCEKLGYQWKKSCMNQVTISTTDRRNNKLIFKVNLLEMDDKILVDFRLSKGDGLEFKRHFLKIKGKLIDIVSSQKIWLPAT
T2 sequence (Q7TMS5 whole entry): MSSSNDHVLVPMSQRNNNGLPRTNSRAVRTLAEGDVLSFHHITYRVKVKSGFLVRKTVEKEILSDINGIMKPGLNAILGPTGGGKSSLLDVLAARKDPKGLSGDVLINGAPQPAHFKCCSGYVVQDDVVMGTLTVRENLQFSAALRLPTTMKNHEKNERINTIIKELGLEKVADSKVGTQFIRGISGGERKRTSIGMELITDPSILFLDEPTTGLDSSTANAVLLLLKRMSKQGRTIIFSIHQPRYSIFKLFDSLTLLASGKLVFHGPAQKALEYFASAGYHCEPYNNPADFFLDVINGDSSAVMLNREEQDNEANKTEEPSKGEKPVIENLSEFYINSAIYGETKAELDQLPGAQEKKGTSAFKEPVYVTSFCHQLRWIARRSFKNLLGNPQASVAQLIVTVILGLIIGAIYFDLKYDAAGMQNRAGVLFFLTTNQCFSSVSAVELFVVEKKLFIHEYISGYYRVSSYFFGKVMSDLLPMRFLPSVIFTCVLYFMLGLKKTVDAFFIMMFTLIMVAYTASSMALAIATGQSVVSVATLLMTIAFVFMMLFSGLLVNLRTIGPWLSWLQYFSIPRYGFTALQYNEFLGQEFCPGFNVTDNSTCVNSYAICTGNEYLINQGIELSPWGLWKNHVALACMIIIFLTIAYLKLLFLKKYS
T1 sequence (P08183 whole entry): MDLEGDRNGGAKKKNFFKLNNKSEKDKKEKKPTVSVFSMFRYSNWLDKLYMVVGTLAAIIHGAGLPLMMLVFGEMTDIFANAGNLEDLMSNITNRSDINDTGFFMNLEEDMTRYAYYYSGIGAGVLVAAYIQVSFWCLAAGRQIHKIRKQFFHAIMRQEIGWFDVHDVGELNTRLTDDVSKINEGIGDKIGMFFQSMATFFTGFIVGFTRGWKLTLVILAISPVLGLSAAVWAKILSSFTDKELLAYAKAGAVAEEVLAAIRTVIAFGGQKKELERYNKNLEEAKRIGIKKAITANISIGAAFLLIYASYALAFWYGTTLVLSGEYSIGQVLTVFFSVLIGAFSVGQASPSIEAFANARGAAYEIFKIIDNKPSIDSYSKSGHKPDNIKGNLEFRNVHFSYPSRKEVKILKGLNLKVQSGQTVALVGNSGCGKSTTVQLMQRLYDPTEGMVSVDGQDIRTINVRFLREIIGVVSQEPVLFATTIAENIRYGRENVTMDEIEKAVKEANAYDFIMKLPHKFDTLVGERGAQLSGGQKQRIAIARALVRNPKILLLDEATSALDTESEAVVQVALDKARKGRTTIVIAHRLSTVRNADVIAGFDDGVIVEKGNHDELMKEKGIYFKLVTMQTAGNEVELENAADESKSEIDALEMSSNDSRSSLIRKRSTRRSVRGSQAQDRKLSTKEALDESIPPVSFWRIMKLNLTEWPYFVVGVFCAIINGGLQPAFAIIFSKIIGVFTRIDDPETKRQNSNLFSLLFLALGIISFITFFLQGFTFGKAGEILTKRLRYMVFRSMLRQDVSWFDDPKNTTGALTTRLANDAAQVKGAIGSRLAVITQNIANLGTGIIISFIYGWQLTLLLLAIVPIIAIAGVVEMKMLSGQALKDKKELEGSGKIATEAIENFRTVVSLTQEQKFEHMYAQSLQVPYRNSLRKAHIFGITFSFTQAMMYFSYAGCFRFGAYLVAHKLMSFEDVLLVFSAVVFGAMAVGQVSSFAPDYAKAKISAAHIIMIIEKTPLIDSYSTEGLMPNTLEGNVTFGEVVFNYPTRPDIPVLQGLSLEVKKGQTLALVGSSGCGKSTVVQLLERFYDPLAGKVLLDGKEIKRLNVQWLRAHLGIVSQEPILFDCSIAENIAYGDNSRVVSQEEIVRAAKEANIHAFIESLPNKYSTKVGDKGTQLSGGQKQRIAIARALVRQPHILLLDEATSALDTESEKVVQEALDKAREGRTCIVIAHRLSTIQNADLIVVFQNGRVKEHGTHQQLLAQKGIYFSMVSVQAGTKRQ
EphB3, sequence (P54753 34-998): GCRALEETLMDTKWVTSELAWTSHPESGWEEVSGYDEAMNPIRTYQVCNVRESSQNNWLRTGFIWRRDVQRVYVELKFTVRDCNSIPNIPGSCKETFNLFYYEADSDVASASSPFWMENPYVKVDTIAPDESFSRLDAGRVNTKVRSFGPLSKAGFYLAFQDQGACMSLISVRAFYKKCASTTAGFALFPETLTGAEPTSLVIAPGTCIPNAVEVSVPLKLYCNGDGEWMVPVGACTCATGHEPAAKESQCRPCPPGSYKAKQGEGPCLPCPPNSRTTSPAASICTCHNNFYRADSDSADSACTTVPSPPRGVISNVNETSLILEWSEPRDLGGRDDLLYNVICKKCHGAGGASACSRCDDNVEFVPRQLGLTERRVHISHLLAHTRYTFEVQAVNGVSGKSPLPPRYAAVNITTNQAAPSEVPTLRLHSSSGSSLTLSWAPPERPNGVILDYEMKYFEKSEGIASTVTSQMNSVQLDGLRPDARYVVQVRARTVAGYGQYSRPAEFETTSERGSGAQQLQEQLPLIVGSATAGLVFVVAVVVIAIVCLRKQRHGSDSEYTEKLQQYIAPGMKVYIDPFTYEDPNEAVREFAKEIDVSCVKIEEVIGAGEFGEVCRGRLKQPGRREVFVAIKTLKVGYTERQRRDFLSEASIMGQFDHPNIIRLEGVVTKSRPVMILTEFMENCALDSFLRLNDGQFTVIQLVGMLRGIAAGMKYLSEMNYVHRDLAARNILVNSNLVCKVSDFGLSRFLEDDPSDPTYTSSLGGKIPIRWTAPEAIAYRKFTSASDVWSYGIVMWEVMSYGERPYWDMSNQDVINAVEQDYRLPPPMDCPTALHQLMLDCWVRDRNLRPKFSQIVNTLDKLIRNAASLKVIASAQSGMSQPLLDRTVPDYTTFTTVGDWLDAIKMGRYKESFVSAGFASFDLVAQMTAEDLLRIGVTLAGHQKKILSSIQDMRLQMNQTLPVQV
CK1_gamma3, sequence (Q9Y6M4 whole entry): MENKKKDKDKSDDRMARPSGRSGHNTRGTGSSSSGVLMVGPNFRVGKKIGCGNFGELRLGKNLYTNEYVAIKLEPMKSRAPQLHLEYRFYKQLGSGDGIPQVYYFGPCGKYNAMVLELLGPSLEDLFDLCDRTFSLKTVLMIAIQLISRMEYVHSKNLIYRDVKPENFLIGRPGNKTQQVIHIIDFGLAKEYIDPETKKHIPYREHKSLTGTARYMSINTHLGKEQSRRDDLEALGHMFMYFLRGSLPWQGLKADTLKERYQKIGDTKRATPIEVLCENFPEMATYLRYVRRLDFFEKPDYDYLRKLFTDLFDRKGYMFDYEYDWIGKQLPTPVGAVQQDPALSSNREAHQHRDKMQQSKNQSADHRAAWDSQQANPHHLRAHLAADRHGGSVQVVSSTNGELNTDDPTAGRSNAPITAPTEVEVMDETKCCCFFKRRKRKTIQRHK
MEK1, sequence (Q02750 whole entry): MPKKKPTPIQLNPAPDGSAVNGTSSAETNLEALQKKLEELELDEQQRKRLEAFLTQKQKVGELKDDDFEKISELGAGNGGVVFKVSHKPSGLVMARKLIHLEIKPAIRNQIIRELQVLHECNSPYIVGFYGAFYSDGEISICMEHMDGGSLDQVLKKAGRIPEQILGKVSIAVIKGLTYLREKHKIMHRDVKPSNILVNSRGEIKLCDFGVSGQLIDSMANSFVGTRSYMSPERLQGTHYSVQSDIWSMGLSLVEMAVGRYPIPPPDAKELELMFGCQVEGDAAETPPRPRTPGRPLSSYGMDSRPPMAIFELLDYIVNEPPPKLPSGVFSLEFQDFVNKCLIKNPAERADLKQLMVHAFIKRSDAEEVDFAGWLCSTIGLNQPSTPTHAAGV

## CC1(C)OCCn2c1nc1c(N3CCOCC3)nc(-c3cnc(N)nc3)nc12 [GDC-0084, 5-(6,6-dimethyl-4-morpholino-8,9-dihydro-6H-[1,4]oxazino[3,4-e]purin-2-yl)pyrimidin-2-amine]
[1]; IV 1 mg/kg
  In vivo Cl: 28 mL/min/kg
[1]; PO 5 mg/kg in MCT
  Cmax: 1.1 μm
  F %: 77%
[2]; PO 2 mg/kg in MCT
  AUC: 0.11 μm·h
  Cmax: 0.03 μm
[2]; male, cynomolgus monkey, plasma, IV 1 mg/kg, read-out: In vivo Cl
  clearance: 46 mL/min/kg
[2]; male, cynomolgus monkey, plasma, IV 1 mg/kg, read-out: Vss
  Vd: 2.9 L/kg
[2]; male, cynomolgus monkey, plasma, PO 2 mg/kg in MCT
  bioavailability: 6%
[3]; PO 2 mg/kg in MCT
  AUC: 1.6 μm·h
  Cmax: 0.2 μm
[3]; beagle, plasma, IV 1 mg/kg, read-out: In vivo Cl
  clearance: 26 mL/min/kg
[3]; beagle, plasma, IV 1 mg/kg, read-out: Vss
  Vd: 3 L/kg
[3]; beagle, plasma, PO 2 mg/kg in MCT
  bioavailability: 40%
[4]
  fraction unbound: 0.25
[5]
  fraction unbound: 0.34
[6]
  blood brain barrier crossing and brain distribution: crosses the blood brain barrier and uniformly distributes throughout the brain
high-grade gliomas
  MRI derived metrics versus drug plasma exposure: none of the MRI derived metrics (Ktrans, Cerebral blood volume, apparent diffusion coefficient) showed any significant trend with drug plasma exposure
Human P-gp (MDR1)
  Papp A→B at 2 h, 5 μM: 13.5 ± 0.9 ×10⁻⁶ cm/s
Mouse Bcrp1
  Papp A→B at 2 h, 5 μM: 17.6 ± 2.1 ×10⁻⁶ cm/s
[7]
  fraction unbound at 4 h, 5 µM: 0.295 ± 0.027
[8]
  fraction unbound at 4 h, 5 µM: 0.067
pS6; 2 hours after final administration
  Suppression of pS6 in GS2 tumors: 35%
pS6; 8 hours post-dose
  pS6 level in GS2 tumors: back to baseline levels
[9]; DMF
  Solubility: 0.9 wt. %
[9]; DMF/HOAc/H2O 67:24:9 by volume
  Solubility: 0.3 wt. %
[9]; EtOH
  Solubility: 0.1 wt. %
[9]; EtOH/HOAc/H2O 67:24:9 by volume
  Solubility: 1 wt. %
[9]; HOAc
  Solubility: 2.8 wt. %
[9]; HOAc/HOAc/H2O 67:24:9 by volume
  Solubility: 2.1 wt. %
[9]; MeOH
  Solubility: 0.2 wt. %
[9]; MeOH/HOAc/H2O 67:24:9 by volume
  Solubility: 0.4 wt. %
[9]; MeTHF
  Solubility: 0.3 wt. %
[9]; MeTHF/HOAc/H2O 67:24:9 by volume
  Solubility: 2.7 wt. %
[9]; PhMe
  Solubility: 0.1 wt. %
[9]; THF
  Solubility: 0.7 wt. %
[9]; THF/HOAc/H2O 67:24:9 by volume
  Solubility: 3.7 wt. %
[9]; Toluene/HOAc/H2O 67:24:9 by volume
  Solubility: 3.8 wt. %
[9]; i-BuOH
  Solubility: 0.1 wt. %
[9]; i-BuOHHOAcH2O 67:24:9 by volume
  Solubility: 2.1 wt. %
[9]; n-BuOH
  Solubility: 0.1 wt. %
[9]; n-BuOH/HOAc/H2O 67:24:9 by volume
  Solubility: 2.4 wt. %
[9]; n-PrOH
  Solubility: 0.1 wt. %
[9]; n-PrOH/HOAc/H2O 67:24:9 by volume
  Solubility: 1.8 wt. %
Abl
  inhibition at 1 µM: 2%
CDK5/p25
  inhibition at 1 µM: 0.3%
CHK1
  inhibition at 1 µM: 0.6%
CK1_gamma3
  inhibition at 1 µM: -0.2%
EphB3
  inhibition at 1 µM: -0.1%
MEK1
  inhibition at 1 µM: -0.1%
NEK2
  inhibition at 1 µM: 20%
PhK_gamma1
  inhibition at 1 µM: 2%
TBK1
  inhibition at 1 µM: 4%
ZAP-70
  inhibition at 1 µM: -0.9%
